Results: patent US7875647B2, “Heteroaryl-pyrazole derivatives as cannabinoid CB1 receptor antagonists” (Green Cross Corporation, priority 2006, dated 2011)

Target: T1, Cannabinoid-1 receptor (CB1R) (Rattus norvegicus, UniProt P20272)
T1 construct: The tissue obtained from the brain of SD rats was homogenized; from tissue; host or cells: brain of SD rats (membrane pellet of the homogenate)
Experiment: Cannabinoid-1 receptor (CB1R) binding affinity assay ([3H]CP-55940, rat CB-1 receptor binding protocol)
Settings: IC50(nM), brain tissue of SD rats, [3H]CP-55940, 30° C. 60 min

T1 sequence (P20272 whole entry): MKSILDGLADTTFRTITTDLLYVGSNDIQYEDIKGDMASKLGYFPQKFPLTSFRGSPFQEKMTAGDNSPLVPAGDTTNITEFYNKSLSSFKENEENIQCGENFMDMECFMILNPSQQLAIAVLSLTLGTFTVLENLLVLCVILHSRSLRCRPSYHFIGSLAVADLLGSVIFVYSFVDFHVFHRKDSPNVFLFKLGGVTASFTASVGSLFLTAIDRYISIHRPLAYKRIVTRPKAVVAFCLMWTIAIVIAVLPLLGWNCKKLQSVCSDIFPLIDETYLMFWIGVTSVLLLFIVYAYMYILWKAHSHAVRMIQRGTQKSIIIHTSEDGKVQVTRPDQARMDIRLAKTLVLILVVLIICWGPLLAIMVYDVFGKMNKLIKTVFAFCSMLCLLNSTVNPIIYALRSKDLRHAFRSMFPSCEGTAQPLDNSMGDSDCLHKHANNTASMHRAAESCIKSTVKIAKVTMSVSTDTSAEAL

Molecule | IC50 [nM]
CC(C)(C)c1nnc(-c2nn(-c3ccc(Cl)cc3Cl)c(-c3ccc(Cl)cc3)c2C2CC2)s1 [Example 441, 2-tert-butyl-5-(5-(4-chlorophenyl)-4-cyclopropyl-1-(2,4-dichlorophenyl)-1H-pyrazol-3-yl)-1,3,4-thiadiazole] | 29.8
C=Cc1c(-c2nnc(C(C)(C)C)o2)nn(-c2ccc(Cl)cc2Cl)c1-c1ccc(Br)cc1 [Example 228, 2-(5-(4-bromophenyl)-1-(2,4-dichlorophenyl)-4-vinyl-1H-pyrazol-3-yl)-5-tert-butyl-1,3,4-oxadiazole] | 16.6
C=CCC1(c2nnc(-c3nn(-c4ccc(Cl)cc4Cl)c(-c4ccc(Br)cc4)c3CC)o2)CC1 [Example 259, 2-(1-allylcyclopropyl)-5-(5-(4-bromophenyl)-1-(2,4-dichlorophenyl)-4-ethyl-1H-pyrazol-3-yl)-1,3,4-oxadiazole] | 9.57

Same assay, conditions: brain tissue of SD rats, [3H]CP-55940, 30° C. 60 min; read-out: IC50

IC50 [nM] | Molecule
893 | Cc1c(-c2nnc(C3CCC3)s2)nn(-c2ccc(Cl)cc2Cl)c1-c1cccc(Cl)c1 [Example 436, 2-(5-(3-chlorophenyl)-1-(2,4-dichlorophenyl)-4-methyl-1H-pyrazol-3-yl)-5-cyclobutyl-1,3,4-thiadiazole]
11.2 | Cc1c(-c2nnc(C(C)CC3CCC3)o2)nn(-c2ccc(Cl)cc2Cl)c1-c1ccc(Cl)cc1 (stereo not drawn) [Example 54, 2-(5-(4-chlorophenyl)-1-(2,4-dichlorophenyl)-4-methyl-1H-pyrazol-3-yl)-5-(1-cyclobutylpropan-2-yl)-1,3,4-oxadiazole]
9.42 | CCc1c(-c2nnc(C3CCCCCC3)s2)nn(-c2ccc(Cl)cc2Cl)c1-c1ccc(Cl)cc1 [Example 397, 2-(5-(4-chlorophenyl)-1-(2,4-dichlorophenyl)-4-ethyl-1H-pyrazol-3-yl)-5-cycloheptyl-1,3,4-thiadiazole]
73.4 | CCCCC(O)c1nnc(-c2nn(-c3ccc(Cl)cc3Cl)c(-c3ccc(Cl)cc3)c2C)o1 (stereo not drawn) [Example 241, 1-(5-(5-(4-chlorophenyl)-1-(2,4-dichlorophenyl)-4-methyl-1H-pyrazol-3-yl)-1,3,4-oxadiazol-2-yl)pentan-1-ol]
12.1 | CC(=O)OCc1c(-c2nnc(C(C)(C)C)o2)nn(-c2ccc(Cl)cc2Cl)c1-c1ccc(Br)cc1 [Example 195, (5-(4-bromophenyl)-3-(5-tert-butyl-1,3,4-oxadiazol-2-yl)-1-(2,4-dichlorophenyl)-1H-pyrazol-4-yl)methyl acetate]
23.3 | CCC(C)(C)c1nnc(-c2nn(-c3ccc(Cl)cc3Cl)c(-c3ccc(Cl)cc3)c2Br)s1 [Example 545, 2-(4-bromo-5-(4-chlorophenyl)-1-(2,4-dichlorophenyl)-1H-pyrazol-3-yl)-5-tert-pentyl-1,3,4-thiadiazole]
4.08 | CCc1c(-c2nnc(C3(c4ccccc4F)CC3)o2)nn(-c2ccc(Cl)cc2Cl)c1-c1ccc(Cl)cc1 [Example 282, 2-(5-(4-chlorophenyl)-1-(2,4-dichlorophenyl)-4-ethyl-1H-pyrazol-3-yl)-5-(1-(2-fluorophenyl)cyclopropyl)-1,3,4-oxadiazole]
2.21 | Clc1ccc(-c2c(Cn3cncn3)c(-c3nnc(C4(c5ccc(Cl)cc5)CC4)o3)nn2-c2ccc(Cl)cc2Cl)cc1 [Example 313, 2-(4-((1H-1,2,4-triazol-1-yl)methyl)-5-(4-chlorophenyl)-1-(2,4-dichlorophenyl)-1H-pyrazol-3-yl)-5-(1-(4-chlorophenyl)cyclopropyl)-1,3,4-oxadiazole]
95.2 | Cc1c(-c2cc(C(C)(C)C)no2)nn(-c2ccc(Cl)cc2Cl)c1-c1ccc(Cl)cc1 [Example 651, 3-tert-butyl-5-(5-(4-chlorophenyl)-1-(2,4-dichlorophenyl)-4-methyl-1H-pyrazol-3-yl)isoxazole]
128 | Cc1c(-c2n[nH]c(C3CC3)n2)nn(-c2ccc(Cl)cc2Cl)c1-c1ccc(Cl)cc1 [Example 619, 3-(5-(4-chlorophenyl)-1-(2,4-dichlorophenyl)-4-methyl-1H-pyrazol-3-yl)-5-cyclopropyl-1H-1,2,4-triazole]
653 | Clc1ccc(-c2c(Cl)c(-c3nnc(C4CCCCC4)s3)nn2-c2ccc(Cl)cc2Cl)cc1 [Example 538, 2-(4-chloro-5-(4-chlorophenyl)-1-(2,4-dichlorophenyl)-1H-pyrazol-3-yl)-5-cyclohexyl-1,3,4-thiadiazole]
16.3 | Cc1c(-c2nnc(C3(C(F)(F)F)CCC3)o2)nn(-c2ccc(Cl)cc2Cl)c1-c1ccc(Cl)cc1 [Example 135, 2-(5-(4-chlorophenyl)-1-(2,4-dichlorophenyl)-4-methyl-1H-pyrazol-3-yl)-5-(1-(trifluoromethyl)cyclobutyl)-1,3,4-oxadiazole]
14.7 | Cc1c(-c2nnc(C(C)(C)C)s2)nn(-c2ccccc2Cl)c1-c1ccc(Cl)cc1 [Example 405, 2-tert-butyl-5-(1-(2-chlorophenyl)-5-(4-chlorophenyl)-4-methyl-1H-pyrazol-3-yl)-1,3,4-thiadiazole]
4.48 | C=CCOC(C)(C)c1nnc(-c2nn(-c3ccc(Cl)cc3Cl)c(-c3ccc(Cl)cc3)c2CC)o1 [Example 239, 2-(2-(allyloxy)propan-2-yl)-5-(5-(4-chlorophenyl)-1-(2,4-dichlorophenyl)-4-ethyl-1H-pyrazol-3-yl)-1,3,4-oxadiazole]
18.2 | CCc1c(-c2nnc(C3CCCCC3)s2)nn(-c2ccc(Cl)cc2Cl)c1-c1ccc(Cl)cc1 [Example 390, 2-(5-(4-chlorophenyl)-1-(2,4-dichlorophenyl)-4-ethyl-1H-pyrazol-3-yl)-5-cyclohexyl-1,3,4-thiadiazole]
23.1 | CCc1c(-c2nnc(C(CC)CC)s2)nn(-c2ccc(Cl)cc2Cl)c1-c1ccc(Br)cc1 [Example 454, 2-(5-(4-bromophenyl)-1-(2,4-dichlorophenyl)-4-ethyl-1H-pyrazol-3-yl)-5-(pentan-3-yl)-1,3,4-thiadiazole]
21 | CCCc1c(-c2nnc(C3(C(F)(F)F)CC3)s2)nn(-c2ccc(Cl)cc2Cl)c1-c1ccc(Cl)cc1 [Example 499, 2-(5-(4-chlorophenyl)-1-(2,4-dichlorophenyl)-4-propyl-1H-pyrazol-3-yl)-5-(1-(trifluoromethyl)cyclopropyl)-1,3,4-thiadiazole]
27.8 | CCC(C)(C)c1nnc(-c2nn(-c3ccc(Cl)cc3Cl)c(-c3ccc(Cl)cc3)c2Br)o1 [Example 342, 2-(4-bromo-5-(4-chlorophenyl)-1-(2,4-dichlorophenyl)-1H-pyrazol-3-yl)-5-tert-pentyl-1,3,4-oxadiazole]
105 | Cc1c(-c2nnnn2Cc2ccoc2)nn(-c2ccc(Cl)cc2Cl)c1-c1ccc(Cl)cc1 [Example 595, 5-(5-(4-Chlorophenyl)-1-(2,4-dichlorophenyl)-4-methyl-1H-pyrazol-3-yl)-1-(furan-3-ylmethyl)-1H-tetrazole]
12.1 | CC(F)c1c(-c2nnc(C(C)(C)C)o2)nn(-c2ccc(Cl)cc2Cl)c1-c1ccc(Br)cc1 (stereo not drawn) [Example 211, 2-(5-(4-bromophenyl)-1-(2,4-dichlorophenyl)-4-(1-fluoroethyl)-1H-pyrazol-3-yl)-5-tert-butyl-1,3,4-oxadiazole]
24.3 | Cc1c(-c2nnc(CC3CCCCC3)s2)nn(-c2ccc(Cl)cc2Cl)c1-c1ccc(Br)cc1 [Example 387, 2-(5-(4-bromophenyl)-1-(2,4-dichlorophenyl)-4-methyl-1H-pyrazol-3-yl)-5-(cyclohexylmethyl)-1,3,4-thiadiazole]
177 | CCCCC(OCc1ccccc1)c1nnc(-c2nn(-c3ccc(Cl)cc3Cl)c(-c3ccc(Cl)cc3)c2C)o1 (stereo not drawn) [Example 236, 2-(1-(benzyloxy)pentyl)-5-(5-(4-chlorophenyl)-1-(2,4-dichlorophenyl)-4-methyl-1H-pyrazol-3-yl)-1,3,4-oxadiazole]
5.8 | CCc1c(-c2nnc(C3(c4ccc(F)cc4)CC3)o2)nn(-c2ccc(Cl)cc2Cl)c1-c1ccc(Br)cc1 [Example 272, 2-(5-(4-bromophenyl)-1-(2,4-dichlorophenyl)-4-ethyl-1H-pyrazol-3-yl)-5-(1-(4-fluorophenyl)cyclopropyl)-1,3,4-oxadiazole]
122 | Cc1c(-c2nnn(CCc3ccccc3)n2)nn(-c2ccc(Cl)cc2Cl)c1-c1ccc(Cl)cc1 [Example 592, 5-(5-(4-Chlorophenyl)-1-(2,4-dichlorophenyl)-4-methyl-1H-pyrazol-3-yl)-2-phenethyl-2H-tetrazole]
4.47 | CCc1c(-c2nnc(C3(c4ccc(C)cc4)CC3)o2)nn(-c2ccc(Cl)cc2Cl)c1-c1ccc(Br)cc1 [Example 176, 2-(5-(4-bromophenyl)-1-(2,4-dichlorophenyl)-4-ethyl-1H-pyrazol-3-yl)-5-(1-p-tolylcyclopropyl)-1,3,4-oxadiazole]
13.9 | Cc1c(-c2nnc(C(C)(C)C3CCCCC3)s2)nn(-c2ccc(Cl)cc2Cl)c1-c1ccc(Cl)cc1 [Example 394, 2-(5-(4-chlorophenyl)-1-(2,4-dichlorophenyl)-4-methyl-1H-pyrazol-3-yl)-5-(2-cyclohexylpropan-2-yl)-1,3,4-thiadiazole]
68.9 | CCCn1nnnc1-c1nn(-c2ccc(Cl)cc2Cl)c(-c2ccc(Cl)cc2)c1C [Example 565, 5-(5-(4-Chlorophenyl)-1-(2,4-dichlorophenyl)-4-methyl-1H-pyrazol-3-yl)-1-propyl-1H-tetrazole]
6.97 | CCc1c(-c2nnc(C3(c4ccc(Cl)cc4Cl)CC3)o2)nn(-c2ccc(Cl)cc2Cl)c1-c1ccc(Br)cc1 [Example 174, 2-(5-(4-bromophenyl)-1-(2,4-dichlorophenyl)-4-ethyl-1H-pyrazol-3-yl)-5-(1-(2,4-dichlorophenyl)cyclopropyl)-1,3,4-oxadiazole]
11.1 | CCc1c(-c2nnc(C(C)(C)C)s2)nn(-c2ccc(Cl)cc2Cl)c1-c1ccc(Cl)cc1 [Example 389, 2-tert-butyl-5-(5-(4-chlorophenyl)-1-(2,4-dichlorophenyl)-4-ethyl-1H-pyrazol-3-yl)-1,3,4-thiadiazole]

Molecule | IC50 [nM]
2-(1-benzylcyclopropyl)-5-(5-(4-bromophenyl)-1-(2,4-dichlorophenyl)-4-ethyl-1H-pyrazol-3-yl)-1,3,4-oxadiazole [Example 271] | 5.88
